105 molecules from PubChem BioAssay AID1996 can be followed below.

One may read the solubility (kinetic) as solubility judged after dilution from a stock solution rather than from solid.

In brackets after ≈: the same amount, converted by molar mass. Bounds are passed on as bounds.

For this series the following is noted: buffer; pH 7.4; 200.0 µM.
As for `O=C(NCCc1ccc(F)cc1)Nc1ccccc1`, the solubility (kinetic) came out at 6.1 µg/mL (≈ 23.6 µM). In the case of `COc1cc(CNC2CCCCCCC2)ccc1OCC(N)=O` it was over 48.1 µg/mL; in that of `Cc1ccc(S(=O)(=O)N2CCC(C(=O)NCC3CCCCC3)CC2)cc1`, 1.6 µg/mL (≈ 4.23 µM); in that of `O=C(Nc1nc2ccc(F)cc2s1)Oc1ccccc1`, 1.7 µg/mL (≈ 5.9 µM). To `Cc1ccc(S(=O)(=O)N2CCN(C(=O)N3CCCC3)CC2)cc1` belongs 48.7 µg/mL (≈ 144 µM); to `C/C(=N\O)C(C)(C)Nc1ccc(F)cc1`, over 31.5 µg/mL. Consider `CCN(CC(=O)Nc1cc(Cl)ccc1C)C(=O)CC1CCCC1`, for which the kinetic solubility was over 50.5 µg/mL. In the case of `COc1ccc(C(CC(=O)O)N2Cc3ccccc3C2=O)cc1OC` (stereo not given) it was over 51.2 µg/mL; in that of `Cc1ccccc1S(=O)Cc1ccc(C(=O)NC2CC2)o1` (stereo not given), over 45.5 µg/mL; in that of `Cc1ccc(S(=O)(=O)n2ccc3c2CCCC3=O)cc1`, over 43.4 µg/mL. `Cn1ncc([N+](=O)[O-])c1C(=O)Nc1ccccc1Cl` returned a solubility (kinetic) of over 42.1 µg/mL.

For `CCOC(=O)c1c(C)nc2cc(C)cc(C)n12`, the solubility (kinetic) was 32.4 µg/mL (≈ 139 µM). In the case of `CC(C)N(Cc1ccccc1)C(=O)CN1c2cccc3cccc(c23)S1(=O)=O` it was 11 µg/mL (≈ 27.9 µM); in that of `Cc1c(C(=O)NC2CCCCC2C)oc2ccccc12` (stereo not given), 1.7 µg/mL (≈ 6.26 µM). To `CCOc1ncccc1C(=O)OCC(=O)N1CCC(C)CC1` belongs over 46 µg/mL; to `Cc1oc(C(C)(C)C)cc1C(=O)N1CCN(c2ccc(C(F)(F)F)cn2)CC1`, 6.4 µg/mL (≈ 16.2 µM); to `Cc1ccc(NC(=O)CCN2C(=O)c3ccccc3C2=O)cc1C`, 4.6 µg/mL (≈ 14.3 µM). `O=[N+]([O-])c1ccc(Cl)cc1N1CCCCC1` showed a solubility (kinetic) of under 0.3 µg/mL.

`Cc1ccc(Nc2ccccc2N)cc1`: the solubility (kinetic) is 23.1 µg/mL (≈ 117 µM). To `CCOc1ccc(OCCCCn2cnc3ccccc3c2=O)cc1` belongs 0.7 µg/mL (≈ 2.07 µM); to `COc1ccc(Cn2c(=O)cc(N)n(-c3ccccc3C)c2=O)cc1`, over 50.6 µg/mL; to `CC(=O)N1c2ccc(S(=O)(=O)N3CCCCC3)cc2CC1C` (stereo not given), over 48.4 µg/mL. To `O=C(COC(=O)/C=C/c1cccc(F)c1)Nc1ncccn1` belongs 27.7 µg/mL (≈ 91.9 µM); to `O=S1(=O)C[C@@H](O)[C@@H](Nc2ccccc2)C1`, over 34.1 µg/mL. To `Cc1ccc(OCC(=O)Nc2ccccc2C(=O)NC2CC2)cc1C` belongs 0.8 µg/mL (≈ 2.36 µM). On to `O=C(Nc1ccccc1C(=O)Nc1ccncc1)c1ccc([N+](=O)[O-])cc1`, for which the kinetic solubility is 11.2 µg/mL (≈ 30.9 µM). In the case of `CC(C)(C)c1ccc(C(=O)NCCC(=O)N2CCCC2)cc1` it was over 45.4 µg/mL; in that of `CN(C)C(=O)C(CCN1CCC(O)(c2ccc(Cl)cc2)CC1)(c1ccccc1)c1ccccc1.Cl`, over 77 µg/mL. In the case of `CCOC(=O)[C@H](CCc1ccccc1)N[C@@H](C)C(=O)N1Cc2ccccc2C[C@H]1C(=O)O.Cl` it was over 71.2 µg/mL; in that of `O=C(O)c1ccccc1C(=O)Nc1ccc(Oc2ccccc2)cc1`, over 50 µg/mL.

The molecule `O=C(Nc1cccnc1)c1ccc(CSc2ccccc2)cc1` returned a solubility (kinetic) of under 0.3 µg/mL.

In turn, `COc1cccc(CN2C(=O)NC3(CCCCCC3)C2=O)c1` returned a solubility (kinetic) of over 45.4 µg/mL. To `Cc1ccc(N(CC(=O)NC2CC2)S(=O)(=O)c2ccccc2)c(C)c1` belongs over 53.8 µg/mL; to `S=C(Nc1ccc2c(c1)OCCO2)Nc1ccccc1Cl`, over 48.1 µg/mL; to `COC(=O)c1ccc(CN2C(=O)NC3(CCC(C)CC3)C2=O)cc1` (stereo not given), 7.5 µg/mL (≈ 22.7 µM).

For the molecule `Cc1cc(C(=O)OCC(=O)NC2CCCCC2C)c2ccccc2n1` (stereo not given), the solubility (kinetic) came out at 6.3 µg/mL (≈ 18.5 µM). In the case of `CC(=O)Nc1cccc(C(=O)OCC(=O)Nc2ccc(Cl)cn2)c1` it was 6.9 µg/mL (≈ 19.8 µM); in that of `CCC(C)NC(=O)c1cn(-c2cccc(OC)c2)c(=O)c2ccccc12` (stereo not given), 46.9 µg/mL (≈ 134 µM); in that of `CCCCCCCN=C(C)c1ccccc1O`, 13.9 µg/mL (≈ 59.6 µM).

In turn, `Cc1ccc(C2N=C(N)Nc3nc(=O)c4ccccc4n32)cc1` (stereo not given) returned a solubility (kinetic) of 3.1 µg/mL (≈ 10.2 µM). To `Cc1ccc(CNc2cnccn2)s1` belongs 30 µg/mL (≈ 146 µM); to `Cc1ccc(NC(=O)CCC(=O)c2cccs2)c(Br)c1`, 8.6 µg/mL (≈ 24.4 µM).

For `Cc1ccc(CN2CCN(c3cccc4[nH]ccc34)CC2)cc1`, the kinetic solubility turned out to be 41.2 µg/mL (≈ 135 µM). On to `Cc1cc(SCC(=O)c2ccc(Cl)cc2)nc(=O)[nH]1`, for which the kinetic solubility turned out to be 16.5 µg/mL (≈ 56 µM). In the case of `Cn1c(NCCO)nc2c1c(=O)n(Cc1ccc(F)cc1)c(=O)n2C` it was 50.6 µg/mL (≈ 146 µM). `CC(C)Oc1ccc(C2CC(=O)N(C)C2=O)cc1` (stereo not given) came in with a solubility (kinetic) of over 37.1 µg/mL. In the case of `O=C(COc1ccccc1)NCC(=O)Nc1ccncc1` it was over 42.8 µg/mL. To `O=C(CNC(=O)c1ccco1)N/N=C/c1ccc(C(=O)O)cc1` belongs over 47.3 µg/mL; to `CSc1nc(C)[nH]c(=O)c1C#N`, over 27.2 µg/mL. In the case of `CCOc1ccc(Cc2onc3c2C(=O)CCC3)cc1OCC`, the solubility (kinetic) came out at 45.4 µg/mL (≈ 144 µM). In the case of `COC(=O)CSc1nc2cc3c(cc2cc1C)OCO3` it was 1.7 µg/mL (≈ 5.84 µM); in that of `O=C(O)COc1ccccc1-c1nc(-c2ccccc2)c(-c2ccccc2)[nH]1`, 46.1 µg/mL (≈ 124 µM). Turning to `O=C(NCc1ccccc1)c1cccnc1Sc1ccccc1`, the solubility (kinetic) came to 10.6 µg/mL (≈ 33.1 µM).

Molecule `CC1=C(C(N)=O)C(c2cccs2)NC(=O)N1` (stereo not given) had a solubility (kinetic) of over 35.6 µg/mL. In the case of `COc1ccc(CCNC(=O)CCc2ccc(OC)cc2)cc1` it was 11.4 µg/mL (≈ 36.4 µM). In the case of `Cc1ccc2oc(C(=O)NCc3ccccc3)cc(=O)c2c1` it was under 0.6 µg/mL; in that of `CCC(=O)Nc1cc2[nH]c(=O)cc(C)c2cc1C`, 33.4 µg/mL (≈ 137 µM). In the case of `N#CCC(=O)Nc1ccc(C(F)(F)F)cc1N1CCOCC1` it was 38.3 µg/mL (≈ 122 µM). With `Brc1ccc(COn2ccnc2)cc1`, the solubility (kinetic) was over 38 µg/mL. In the case of `CC(=O)Nc1cc(O)cc(O)c1` it was over 25.1 µg/mL. To `ONC(=Nc1ccccc1Cl)c1ccccc1Cl` belongs over 42.2 µg/mL; to `COc1cccc(NC(=O)c2nc(S(C)(=O)=O)ncc2Cl)c1`, 33.6 µg/mL (≈ 98.3 µM); to `CC(C)Oc1ccc(C(=O)OCC(=O)c2ccc[nH]2)cc1`, 15.1 µg/mL (≈ 52.6 µM).

In the case of `CN(Cc1c(F)cccc1Cl)C(=O)C1=CC=CN2CCS(=O)(=O)N=C12`, the kinetic solubility is over 57.6 µg/mL. To `CN(C)C=Nc1nonc1-c1ccccc1` belongs 24.4 µg/mL (≈ 113 µM). To `O=C(OCC(=O)N1CCCCC1)c1cc(=O)[nH]c2ccccc12` belongs over 47.2 µg/mL; to `COC(=O)C1CSC(C)(C)C(=O)N1` (stereo not given), over 30.5 µg/mL; to `CC1(C)CC(=O)C=C(Nc2ccc(F)c(Cl)c2)C1`, over 40.2 µg/mL.

Molecule `Cn1c(=O)n(CC(=O)[O-])c(=O)c2c1nc1n2CCS1` returned a kinetic solubility of 40.8 µg/mL. On to `Cn1ncc([N+](=O)[O-])c1C(=O)Nc1ccccc1C(=O)O`, for which the kinetic solubility is over 43.5 µg/mL. In the case of `O=C(Cc1ccc(Cl)cc1)Nc1ccccn1`, the kinetic solubility is over 37 µg/mL.

On to `Cc1ccc(NC(=O)CC(C)CC(=O)NCc2ccccc2)cc1Cl` (stereo not given), for which the kinetic solubility was under 0.4 µg/mL. To `Cc1ccc(C(=O)NC(=O)CSc2nncn2C)cc1` belongs over 43.6 µg/mL. In the case of `CCOc1ncccc1C(=O)Nc1ccc(F)c(F)c1` it was 6.7 µg/mL (≈ 24.1 µM); in that of `COc1cccc(/C=C2\SC(=N)N(c3ccc(F)cc3)C2=O)c1`, 0.5 µg/mL (≈ 1.52 µM). To `CCn1c(=O)c(C(=O)NCCCc2ccccc2)c(O)c2ccccc21` belongs under 0.4 µg/mL.

For `Cc1cccc(CC(=O)N2CCCC2)c1`, the solubility (kinetic) is 28.7 µg/mL (≈ 141 µM). To `N#CCN1C(=O)C(=O)N(Cc2cccc(C(F)(F)F)c2)C1=O` belongs 42.6 µg/mL (≈ 137 µM). To `O=C(COC(=O)CCC(=O)c1ccc(F)cc1)NCCc1ccccc1` belongs 49.1 µg/mL (≈ 137 µM); to `C=CCn1c(C)cc(C(=O)Cn2c(C(C)O)nc3ccccc32)c1C` (stereo not given), 29.4 µg/mL (≈ 87.1 µM); to `CC1(C)CC(NCc2ccncc2)CC(C)(C)N1`, 32.2 µg/mL (≈ 130 µM).

Molecule `O=C(CSCc1ccccc1F)NCc1ccc(F)cc1` registered a solubility (kinetic) of over 46.1 µg/mL. In the case of `Cc1c(C(=O)C(=O)NCC2CCCO2)c2ccccc2n1C` (stereo not given) it was over 45.1 µg/mL; in that of `O=C(NC(=S)NC1CCCCC1)c1ccccc1[N+](=O)[O-]`, 3 µg/mL (≈ 9.76 µM).

As for `CC1(c2ccc3ccccc3c2)NC(=O)N(CC(N)=O)C1=O` (stereo not given), the kinetic solubility is over 44.6 µg/mL.

Turning to `CCCCC12CN3CC(C)(CN(C1)C3c1ccc([N+](=O)[O-])o1)C2=O` (stereo not given), the solubility (kinetic) was over 50 µg/mL. The molecule `COc1ccc(CCC(=O)Nc2cnc3ccccc3c2)cc1` returned a kinetic solubility of 1 µg/mL (≈ 3.26 µM). Molecule `CC(C)(C)c1ccc(OCC(O)CN2CCc3ccccc3C2)cc1.Cl` (stereo not given) showed a kinetic solubility of 11.7 µg/mL. To `O=C(O)CN1C(=O)c2cccc3c(Br)ccc1c23` belongs over 45.9 µg/mL. To `CC(C)(C)NC(=O)c1cccc2c1C(=O)c1ccccc1-2` belongs 3.9 µg/mL (≈ 14 µM); to `CCCCc1nnc(NC(=O)C(=O)OCC)s1`, over 38.6 µg/mL; to `Cc1nnc(SCC(=O)N(C)C2CCCCC2)s1`, over 42.8 µg/mL. To `COc1ccc(CCNC(=O)COC(=O)Cc2ccccc2F)cc1` belongs over 51.8 µg/mL. Molecule `CCOC(=O)c1cnc(SCC(=O)OC)nc1N` had a solubility (kinetic) of over 40.7 µg/mL. To `O=Cc1cccnc1SCc1ccccc1` belongs 15.5 µg/mL (≈ 67.6 µM); to `CNC(=O)c1c(NC(=O)C(C)C)sc2c1CCC2`, 36.5 µg/mL (≈ 137 µM).

The molecule `N#Cc1c(Cl)nc2c(c1C#N)CCCC2` came in with a solubility (kinetic) of over 32.6 µg/mL. In the case of `CCOc1ccc(C(=O)N2CCN(c3ccccn3)CC2)cc1` it was over 46.7 µg/mL; in that of `Cc1ccsc1C(=O)N[C@@H](C)c1nnc2ccccn12`, over 43 µg/mL.

Take `COC(=O)c1ccccc1N=Cc1c(O)[nH]c(=S)[nH]c1=O`: the kinetic solubility was found to be 6.1 µg/mL (≈ 20 µM). In the case of `CC1CCCC(C)N1C(=O)COC(=O)CCC(=O)c1cccs1` (stereo not given) it was over 50.6 µg/mL. To `Cc1csc2c(N3CCC(C(=O)O)CC3)ncnc12` belongs 36.9 µg/mL (≈ 133 µM); to `Cc1cc(C)cc(NC(=O)C(C)N2C(=O)c3ccccc3C2=O)c1` (stereo not given), 14.4 µg/mL (≈ 44.7 µM); to `Cc1ccc(S(=O)(=O)CC(=O)Nc2nc3ccccc3s2)cc1`, 1.3 µg/mL (≈ 3.75 µM). Take `CC(=O)Nc1ccc2sc(C)nc2c1`: the kinetic solubility is over 30.9 µg/mL.
